One compound from patent US10568819B2, “Skin enhancing compositions and methods” (Sytheon Limited, priority 2016, dated 2020) can be followed below.

What all share (assay type): cell-based
One test has as its system Melanocytes. Description: UVA-induced delayed formation of CPDs (dCPDs) in melanocytes. The note with it: 25 μg/ml, UVA irradiation first then product added. As for the experimental part:
A second study was carried out, similar to the first, except that this time the analysis was in assessing the efficacy, if any, of the presently taught aryl alkanones in reducing UVA-induced delayed formation of CPDs (dCPDs).

The test system of the next test is human dermal fibroblasts. Description: UVA-induced plasma membrane disruption (Mitochondrial ToxGlo Assay). The note with it: 24 hour Pre-incubation. As for the experimental part:
The study was conducted in accordance with the protocols of Berridge et al, (M V Berridge & A S Tan, Characterization of the cellular reduction of 3-(4,5-dimethylthiazol-2-yl)-2,5-diphenyltetrazolium bromide (MTT): subcellular localization, substrate dependence, and involvement of mitochondrial electron transport in MTT reduction, Arch. Biochem. Biophys. 303:474-482, 1993) and Voigt (W Voigt, Sulforhodamine B assay and chemosensitivity, Methods Mol Med, 110:39-48, 2005). Cellular metabolism is determined using the MTT assay to measure the activity of mitochondrial dehydrogenases, such as succinate dehydrogenase, which are implicated in the respiratory electron transport chain in mitochondria [M V Berridge & Tan Biochem Biophys, 303:474-482, 1993]. Additionally, the samples were subject to the Mitochondrial ToxGlo Assay (Promega Technical Manual, G8000 and G8001), which is a cell-based assay method that has been developed to quantify potential mitochondrial dysfunction as a result of xenobiotic exposure, using a sequential-addition, multiplexed chemistry.
Table 8 presents the result on the effect of UVA radiation on cell metabolism 3 hours after irradiation. As indicated, Compound 1 improves cell metabolism, even at a very low use concentration. Table 9 presents the effect of 24 hour pre-incubation on UVA-induced mitochondrial damage measured by ATP production in human dermal fibroblasts. […] Finally. Table 10 presents the effect of 24 hour pre-incubation on UVA-induced plasma membrane disruption in human dermal fibroblasts. As indicated, Compound 1 almost completely reversed plasma membrane disruption, again at a very low use concentration.

The subject of another test is COL3A1. Description: DNA microarray gene expression, COL3A1. The source says: (§1) In light of the efficacy of the aryl alkanones ire addressing many of the molecular/biomolecular processes damaged by UV exposure, a study was undertaken to assess whether these compounds would also be effective in addressing symptoms associated with non-UV induced skin aging including chronological aging as well as disease conditions that likewise adversely affect skin processes. The studies conducted involves DNA microarray, PCR array, cell culture, enzyme inhibitory activity.

The next test deals with VMN. Description: DNA microarray gene expression, VMN.
From the text: as §1

For the next test, the system named is ITGA4. Description: DNA microarray gene expression, ITGA4.
From the text: as §1

Another test relates to COL6A1. Description: PCR array gene expression, COL6A1.
From the text: as §1

For the compound `COc1cc(CC(C(C)=O)C(C)=O)ccc1O` [Compound 1, Acetyl Zingerone], the “UVA/% Reduction in dCPDs vs. control, 1 hr.” value in the test with Melanocytes (1 hr.) was 1 hr.: ↓70%. Further, in the test on Melanocytes (2 hr.), the “UVA/% Reduction in dCPDs vs. control, 2 hr.” value was 2 hr.: ↓25%. For the same compound, in the test with Melanocytes (4 hr.), the “UVA/% Reduction in dCPDs vs. control, 4 hr.” value was 4 hr.: ~0%. For the same compound, the “Plasma membrane disruption-related fluorescence (% Control)” value with human dermal fibroblasts (6.25 ug/ml) was found to be 125 % Control; in the test with human dermal fibroblasts (12.5 ug/ml) it was 130 % Control; in the test on human dermal fibroblasts (25 ug/ml), 117 % Control. Also, the “Microarray, COL3A1 gene expression” value with COL3A1 is recorded as “+1.7”. Further, the “Microarray, VMN gene expression” value in the test with VMN is “+1.7”. Moreover, the “Microarray, ITGA4 gene expression” value with ITGA4 is on record as “+1.6”. In the test with COL6A1, the “PCR array, COL6A1 gene expression” value is on record as “+1.5”.
